# According to US8710043B2, “TRPM8 antagonists and their use in treatments” (Amgen Inc., priority 2011, dated 2014):
# pIC50: −log10 of the molar value.
# Target: T1, human TRPM8 (Homo sapiens, UniProt Q7Z2W7)
# T1 construct: expressed in transfected cells; host or cells: Chinese hamster ovary (CHO) cells, T-REx tetracycline-inducible system, co-transfected with aequorin
# Assay: Luminescence readout assay for measuring intracellular calcium, icilin activation
# Format: cell-based
# Conditions: CHO cells expressing human TRPM8, aequorin luminescence, 1 μM icilin activation; read-out: hTRPM8 IC50
# Method: Luminescence Readout Assay for Measuring Intracellular Calcium.
# A stable Chinese hamster ovary cell line expressing human TRPM8 was generated using tetracycline inducible T-REx™ expression system from Invitrogen, Inc. (Carlsbad, Calif.). […] Twenty four hours before the assay, cells were seeded in 96-well plates and TRPM8 expression was induced with 0.5 μg/mL tetracycline. […] Potential antagonists were added 2.5 min prior to the addition of agonist, 1 μM icilin, 100 μM L-menthol, or 1 min prior to the addition of cold buffer (<10° C.). The luminescence was measured by a CCD camera based FLASH-luminometer built by Amgen, Inc. A cooling device attached to FLASH luminometer was used for cold activation.
# T1 sequence (Q7Z2W7 whole entry): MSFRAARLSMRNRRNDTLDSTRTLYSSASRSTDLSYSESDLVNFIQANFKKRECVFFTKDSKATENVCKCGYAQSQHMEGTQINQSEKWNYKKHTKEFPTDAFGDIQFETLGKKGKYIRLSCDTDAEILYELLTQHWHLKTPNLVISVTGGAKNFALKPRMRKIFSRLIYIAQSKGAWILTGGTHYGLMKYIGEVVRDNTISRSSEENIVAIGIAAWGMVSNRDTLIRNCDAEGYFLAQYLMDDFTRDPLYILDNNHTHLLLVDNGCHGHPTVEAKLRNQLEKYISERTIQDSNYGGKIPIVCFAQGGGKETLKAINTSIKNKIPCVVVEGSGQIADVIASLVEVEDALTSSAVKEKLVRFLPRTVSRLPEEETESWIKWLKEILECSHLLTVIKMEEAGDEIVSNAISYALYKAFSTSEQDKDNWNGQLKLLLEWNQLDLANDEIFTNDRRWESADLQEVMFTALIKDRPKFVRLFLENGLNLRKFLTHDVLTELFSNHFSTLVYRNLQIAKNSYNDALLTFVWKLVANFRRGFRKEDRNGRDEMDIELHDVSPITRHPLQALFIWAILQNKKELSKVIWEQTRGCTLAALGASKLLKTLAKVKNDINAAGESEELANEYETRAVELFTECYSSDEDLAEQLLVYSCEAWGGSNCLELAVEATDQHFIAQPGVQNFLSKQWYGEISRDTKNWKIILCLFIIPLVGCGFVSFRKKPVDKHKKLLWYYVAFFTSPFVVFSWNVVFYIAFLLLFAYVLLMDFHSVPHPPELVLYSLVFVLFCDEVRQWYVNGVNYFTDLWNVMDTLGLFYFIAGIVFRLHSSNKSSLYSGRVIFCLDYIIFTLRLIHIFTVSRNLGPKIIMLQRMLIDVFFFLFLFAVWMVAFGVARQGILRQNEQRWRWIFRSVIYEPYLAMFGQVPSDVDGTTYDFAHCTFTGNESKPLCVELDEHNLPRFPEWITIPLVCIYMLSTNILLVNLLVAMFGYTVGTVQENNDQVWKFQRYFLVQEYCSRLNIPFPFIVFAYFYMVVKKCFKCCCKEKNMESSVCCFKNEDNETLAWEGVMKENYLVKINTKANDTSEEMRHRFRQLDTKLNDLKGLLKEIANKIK
row,pIC50,SMILES
1,7.92,"O=C(O)c1ccc(C(=O)N[C@@H](c2ccc(OC(F)(F)F)cc2)c2ncccc2F)nc1 [Example 272, (S)-6-(((3-Fluoropyridin-2-yl)(4-(trifluoromethoxy)phenyl)-methyl)carbamoyl)nicotinic Acid]"
2,7.40,"CCn1cc(C(=O)N[C@@H](c2ccc(Cl)c(Cl)c2)c2ncccc2F)ccc1=O [Example 365, (S)-N-((3,4-dichlorophenyl)(3-fluoropyridin-2-yl)methyl)-1-ethyl-6-oxo-1,6-dihydropyridine-3-carboxamide]"
3,7.80,"CCn1cc(C(=O)N[C@@H](c2ccc(C(F)(F)F)cc2)c2ncccc2F)ccc1=O [Example 364, (S)-1-ethyl-N-((3-fluoropyridin-2-yl)(4-(trifluoromethyl)phenyl)methyl)-6-oxo-1,6-dihydropyridine-3-carboxamide]"
4,7.17,"CN(C)c1ccc(C(=O)N[C@@H](c2ccc(C(F)(F)F)cc2)c2ncccc2C(F)(F)F)cc1 [Example 196, (S)-4-(dimethylamino)-N-((4-(trifluoromethyl)phenyl)(3-(trifluoromethyl)pyridin-2-yl)methyl)benzamide]"
5,7.37,"CS(=O)(=O)Nc1ccc(C(=O)N[C@@H](c2ccc(C(F)(F)F)cc2)c2ncccc2F)cc1 [Example 213, (S)-N-((3-fluoropyridin-2-yl)(4-(trifluoromethyl)phenyl)methyl)-4-(methylsulfonamido)benzamide]"
6,7.67,"N#Cc1ccc(C(=O)N[C@@H](c2ccc(C(F)(F)F)cc2)c2ncccc2F)cc1 [Example 167, (S)-4-cyano-N-((3-fluoropyridin-2-yl)(4-(trifluoromethyl)phenyl)methyl)benzamide]"
7,6.55,"Cn1ccnc1C(=O)N[C@@H](c1ccc(OC(F)(F)F)c(F)c1)c1ncccc1F [Example 387, (S)-N-((3-fluoro-4-(trifluoromethoxy)phenyl)(3-fluoropyridin-2-yl)methyl)-1-methyl-1H-imidazole-2-carboxamide 2,2,2-trifluoroacetate]"
8,6.65,"O=C(N[C@@H](c1ccc(C(F)(F)F)cc1)c1ncccc1C(F)(F)F)c1cnc(O)nc1 [Example 266, (S)-2-Hydroxy-N-((4-(trifluoromethyl)phenyl)(3-(trifluoro-methyl)pyridin-2-yl)methyl)pyrimidine-5-carboxamide]"
9,6.64,"O=C(N[C@@H](c1cccc(F)c1)c1ncccc1C(F)(F)F)c1ccc2cccnc2c1 [Example 17, (S)-N-((3-fluorophenyl)(3-(trifluoromethyl)pyridin-2-yl)methyl)quinoline-7-carboxamide]"
10,7.61,"O=C(N[C@@H](c1ccc(C(F)(F)F)cc1)c1ncccc1C(F)(F)F)c1c[nH]c2ncccc12 [Example 43, (S)-N-((4-(trifluoromethyl)phenyl)(3-(trifluoromethyl)pyridin-2-yl)methyl)-1H-pyrrolo[2,3-b]pyridine-3-carboxamide]"
11,7.80,"O=C1CCc2cc(C(=O)N[C@@H](c3ccc(OC(F)(F)F)c(F)c3)c3ncccc3F)ccc2N1 [Example 351, (S)-N-((3-fluoro-4-(trifluoromethoxy)phenyl)(3-fluoropyridin-2-yl)methyl)-2-oxo-1,2,3,4-tetrahydroquinoline-6-carboxamide]"
12,7.63,"O=C(N[C@@H](c1ccc(C(F)(F)F)cc1)c1ncccc1F)c1ccc2nccnc2c1 [Example 170, (S)-N-((3-fluoropyridin-2-yl)(4-(trifluoromethyl)phenyl)methyl)quinoxaline-6-carboxamide]"
13,6.79,"O=C(N[C@@H](c1ccc(C(F)(F)F)cc1)c1ncccc1C(F)(F)F)c1cccnn1 [Example 31, (S)-N-((4-(trifluoromethyl)phenyl)(3-(trifluoromethyl)pyridin-2-yl)methyl)pyridazine-3-carboxamide]"
14,6.40,"CC1(C#Cc2cccnc2[C@@H](NC(=O)c2ccc3ncccc3c2)c2ccc(C(F)(F)F)cc2)COC1 [Example 101, (S)-N-((3-((3-methyloxetan-3-yl)ethynyl)pyridin-2-yl)(4-(trifluoromethyl)phenyl)methyl)quinoline-6-carboxamide 2,2,2-trifluoroacetate]"
15,6.34,"O=C(N[C@@H](c1ccc(C(F)(F)F)cc1)c1ncccc1C(F)(F)F)c1ccc(OC(F)(F)F)cc1 [Example 231, (S)-4-(trifluoromethoxy)-N-((4-(trifluoromethyl)phenyl)(3-(trifluoromethyl)pyridin-2-yl)methyl)benzamide]"
16,7.82,"O=C(N[C@@H](c1ccc(C(F)(F)F)cc1)c1ncccc1F)c1ccc(O)cn1 [Example 173, (S)-N-((3-fluoropyridin-2-yl)(4-(trifluoromethyl)phenyl)methyl)-5-hydroxypicolinamide]"

row,pIC50,SMILES
1,6.88,"O=C(N[C@@H](c1ccc(C(F)(F)F)cc1)c1ncccc1F)c1cc2n(n1)CCCO2 [Example 320, (S)-N-((3-fluoropyridin-2-yl)(4-(trifluoromethyl)phenyl)methyl)-6,7-dihydro-5H-pyrazolo[5,1-b][1,3]oxazine-2-carboxamide]"
2,6.03,"O=C(Cc1ccncc1)N[C@@H](c1ccc(OC(F)(F)F)c(F)c1)c1ncccc1F [Example 290, (S)-N-((3-fluoro-4-(trifluoromethoxy)phenyl)(3-fluoropyridin-2-yl)methyl)-2-(pyridin-4-yl)acetamide]"
3,7.19,"O=C(N[C@@H](c1ccc(C(F)(F)F)cc1)c1ncccc1C(F)(F)F)c1ccc2nccc(O)c2c1 [Example 109, (S)-4-hydroxy-N-((4-(trifluoromethyl)phenyl)(3-(trifluoromethyl)pyridin-2-yl)methyl)quinoline-6-carboxamide 2,2,2-trifluoroacetate]"
4,7.38,"Cc1cncc(C(=O)N[C@@H](c2ccc(C(F)(F)F)cc2)c2ncccc2C(F)(F)F)c1 [Example 182, (S)-5-methyl-N-((4-(trifluoromethyl)phenyl)(3-(trifluoromethyl)pyridin-2-yl)methyl)nicotinamide 2,2,2-trifluoroacetate]"
5,7.72,"CN1C(=O)c2ccc(C(=O)N[C@@H](c3ccc(C(F)(F)F)cc3)c3ncccc3C(F)(F)F)cc2C1=O [Example 270, (S)-2-Methyl-1,3-dioxo-N-((4-(trifluoromethyl)phenyl)(3-(trifluoromethyl)pyridin-2-yl)methyl)isoindoline-5-carboxamide]"
6,7.70,"O=C(N[C@@H](c1ccc(C(F)(F)F)cc1)c1ncccc1F)c1ccc(=O)n(C(F)F)c1 [Example 396, (S)-1-(difluoromethyl)-N-((3-fluoropyridin-2-yl)(4-(trifluoromethyl)phenyl)methyl)-6-oxo-1,6-dihydropyridine-3-carboxamide]"
7,6.86,"Cc1ccnc(C(NC(=O)c2ccc(=O)[nH]c2)c2ccc(OC(F)(F)F)c(F)c2)c1 (centres unmarked) [Example 423, N-((3-fluoro-4-(trifluoromethoxy)phenyl)(4-methylpyridin-2-yl)methyl)-6-oxo-1,6-dihydropyridine-3-carboxamide]"
8,8.05,"O=C(N[C@@H](c1ccc(C(F)(F)F)cc1)c1ncccc1C(F)(F)F)c1ccc2c(O)ccnc2c1 [Example 106, (S)-4-hydroxy-N-((4-(trifluoromethyl)phenyl)(3-(trifluoromethyl)pyridin-2-yl)methyl)quinoline-7-carboxamide 2,2,2-trifluoroacetate]"
9,7.08,"CC1(C)C[C@H]1c1cccnc1[C@@H](NC(=O)c1ccc2ncccc2c1)c1ccc(C(F)(F)F)cc1 [Example 233, N-((S)-(3-((R)-2,2-dimethylcyclopropyl)pyridin-2-yl)(4-(trifluoromethyl)phenyl)methyl)quinoline-6-carboxamide]"
10,5.89,"O=C(O)Cn1cc(C(=O)N[C@@H](c2ccc(OC(F)(F)F)c(F)c2)c2ncccc2F)ccc1=O [Example 428, (S)-2-(5-(((3-Fluoro-4-(trifluoromethoxy)phenyl)(3-fluoropyridin-2-yl)methyl)carbamoyl)-2-oxopyridin-1(2H)-yl)acetic Acid]"
11,7.80,"O=C(N[C@@H](c1ccc(OC(F)(F)F)cc1)c1ncccc1F)c1ccn2nnnc2c1 [Example 310, (S)-N-((3-fluoropyridin-2-yl)(4-(trifluoromethoxy)phenyl)methyl)tetrazolo[1,5-a]pyridine-7-carboxamide]"
12,7.75,"Cc1cc(C(=O)N[C@@H](c2ccc(C(F)(F)F)cc2)c2ncccc2C(F)(F)F)ccn1 [Example 39, (S)-2-methyl-N-((4-(trifluoromethyl)phenyl)(3-(trifluoromethyl)pyridin-2-yl)methyl)isonicotinamide]"
13,8.04,"O=C1Cc2ccc(C(=O)N[C@@H](c3ccc(C(F)(F)F)cc3)c3ncccc3F)cc2N1 [Example 71, (S)-N-((3-fluoropyridin-2-yl)(4-(trifluoromethyl)phenyl)methyl)-2-oxoindoline-6-carboxamide]"
14,7.53,"C=Cc1cccnc1[C@@H](NC(=O)c1ccc(=O)[nH]c1)c1ccc(C(F)(F)F)cc1 [Example 363, (S)-6-oxo-N-((4-(trifluoromethyl)phenyl)(3-vinylpyridin-2-yl)methyl)-1,6-dihydropyridine-3-carboxamide]"
15,6.93,"COc1cccc(C(NC(=O)c2ccc(=O)[nH]c2)c2ccc(OC(F)(F)F)c(F)c2)n1 (centres unmarked) [Example 420, N-((3-fluoro-4-(trifluoromethoxy)phenyl)(6-methoxypyridin-2-yl)methyl)-6-oxo-1,6-dihydropyridine-3-carboxamide]"
16,6.80,"O=C(N[C@@H](c1ccc(C(F)(F)F)cc1)c1ncccc1C(F)(F)F)c1ccc(-c2nnn[nH]2)cc1 [Example 141, (S)-4-(1H-tetrazol-5-yl)-N-((4-(trifluoromethyl)phenyl)(3-(trifluoromethyl)pyridin-2-yl)methyl)benzamide]"
